Assay results reported in paper PMC4564171 (PLoS ONE, 2015).

B1: pvirB FP probe (dsDNA)
DNA 1: AGAATATTATTCTTTTATCCAATAAAGATAAATTGCATCAATCCAGCTATTAAAATAGTA
DNA 2: TACTATTTTAATAGCTGGATTGATGCAATTTATCTTTATTGGATAAAAGAATAATATTCT
B2: pvirB EMSA probe (dsDNA)
DNA 1: GTGCCCTGGTCTGG
DNA 2: B1 DNA 1
DNA 3: TACTATTTTAATAGCTGGATTGATGCAATTTATCTTTATTGGATAAAAGAATAATATTCTCCAGACCAGGGCAC
B3: pScram FP probe (dsDNA)
DNA 1: TAAGTCCTAAATGGAAATTAAATTACGTAATTCACAAATATAGTATGATCATTTATATCA
DNA 2: TGATATAAATGATCATACTATATTTGTGAATTACGTAATTTAATTTCCATTTAGGACTTA
B4: pScram EMSA probe (dsDNA)
DNA 1: GTGCCCTGGTCTGG
DNA 2: B3 DNA 1
DNA 3: TGATATAAATGATCATACTATATTTGTGAATTACGTAATTTAATTTCCATTTAGGACTTACCAGACCAGGGCAC

Columns and labels:
[1] = molecular target: T1, MalE-VirF binding to the pvirB DNA probe (Shigella flexneri, UniProt P0A2T1); assay: Fluorescence polarization (FP) assay, inhibition of MalE-VirF binding to the pvirB DNA probe; settings: read-out: % Inhibition at 100 μM
T1 construct: pMALvirF was constructed by cloning the virF gene into the vector, pMAL-c2x; made in house; host or cells: Shigella flexneri BS103 (pBAD202-MALvirF); initial preparations in E. coli KS1000 (pMALvirF)
Method: The FP assays were conducted in duplicate in black, half-area, 96-well plates (Corning, Twerksbury, MA). First, 30 μL of 5’-Fluoroscein-pvirB DNA probe working standard was added to appropriate wells of the microplate. The pvirB DNA working standard was in TE/NaCl buffer (see above) supplemented with BSA (0.07 mg/mL) and salmon sperm DNA (0.7 mg/mL). Next, 30 μL of varying concentrations of MalE-VirF in amylose resin elution buffer (see above) was added to appropriate wells of the microplate. The final concentration of pvirB DNA was either 50 nM (for test wells) or none (for blank wells) and the final concentrations of MalE-VirF ranged from 45 μM to 0.12 μM (for test wells) or none (for control wells). For each concentration of MalE-VirF tested, a blank well was also set up that included all reagents except pvirB DNA. The microplate was then incubated for 20 minutes at 37°C and anisotropy was determined using a SpectraMax M5 plate reader (Molecular Devices, Sunnyvale, CA). Data was acquired using an excitation wavelength equal to 490 nm and an emission wavelength equal to 520 nm. To determine anisotropy the following equation was used: Anisotropy=F∥-G^*F⊥/F∥+2^*G^*F⊥^*1000 where: Fǁ = fluorescence intensity parallel to excitation source after blanking, F┴ = fluorescence intensity perpendicular to excitation source after blanking, and G = G-factor (correction for polarization bias of the detection system). After anisotropy was determined, data were plotted using GraphPad Prism (La Jolla, Ca) and fit to the following equation: […] where Y = specific binding, KD = dissociation constant, BMAX = maximum binding, X = MalE-VirF concentration, and b = y-intercept.
The FP protocol listed above was adapted to determine the IC50 of the small molecule hit compounds. Compounds (ranging from 200 μM to 3.1 μM) or DMSO for controls (1% final concentration) were added to the pvirB DNA probe working standard prior to addition to the microplates. For IC50 determination, the MalE-VirF and pvirB DNA probe concentrations were held constant at 20 μM and 50 nM, respectively. Positive controls were established to determine 100% VirF inhibition (no MalE-VirF present, 50 nM pvirB DNA probe) and negative controls were set up to determine no VirF inhibition (1% DMSO, 20 μM MalE-VirF, and 50 nM pvirB DNA probe). Once again blanks were set up to include all reagents, except pvirB DNA probe. All reactions were run in duplicate. Anisotropy was calculated as listed above and data were plotted using GraphPad Prism then fit to the following equation: Y=Bottom+(Top-Bottom)/(1+10^(X-logIC50)) where: Y = anisotropy, X = log of compound concentration (M), Top and Bottom = plateaus in anisotropy units, and LogIC50 = log of the concentration that inhibits 50% of VirF binding. In the presence of the compounds (no VirF), a small increase (~6%) in the DNA anisotropy was observed.
The FP protocol used for IC50 determination was adapted to test a library of small molecule inhibitors of VirF. All steps were identical to the above protocol except compounds were tested at only 100 μM final concentration and positive control samples included 100 μM of compound. Once again blanks were set up to include all reagents, except pvirB DNA probe, and all reactions were run in duplicate. Anisotropy was calculated as listed above, and %inhibition was calculated as follows: %inhibition=rneg-rtest/rneg^*100 where: rneg = average anisotropy for negative controls and rtest = average anisotropy in presence of compound. Note: All rneg and rtest values were normalized to positive control values.

[2] = system: spread of an active S. flexneri infection; settings: at concentrations at or below their IC50s in the reporter assay; cited from earlier work
[3] = molecular target: T2, MalE-VirF binding to the 5'Cy5-pvirB DNA probe (Shigella flexneri, UniProt P0A2T1); assay: Electrophoretic mobility shift assay (EMSA) of MalE-VirF binding to pvirB DNA probe; settings: compound 100 μM; MalE-VirF 1 μM; probe 0.25 μM
T2 construct: pMALvirF was constructed by cloning the virF gene into the vector, pMAL-c2x; made in house; host or cells: Shigella flexneri BS103 (pBAD202-MALvirF); initial preparations in E. coli KS1000 (pMALvirF)
Method: Reactions for the EMSAs were incubated in a 37°C water bath for 15 minutes. Reactions (15 μL total volume) were composed of 6 μL pvirB EMSA DNA probe (0.25 μM), 6 μL of either MalE-VirF (1.0 μM) or native gel loading buffer (Tris-HCl 0.3 M, 50% glycerol, 0.05% bromophenol blue, pH 7.0), 1 μL of salmon sperm DNA (0.7 mg/mL, Invitrogen), 0.5 μL BSA (0.07 mg/mL), and 1.5 μL of either DMSO or compound (100 μM). A 6% native polyacrylamide gel (29:1 acrylamide to bis-acrylamide ratio) was made with 0.25X TBE buffer (22 mM Tris Base, 22 mM boric acid, 0.5 mM EDTA, pH 9.5) for the EMSA. The gel was electrophoresed for 1 hour at 150 V in 0.25X TBE buffer at 4°C before samples were loaded. After the reaction solutions (12 μL) were loaded onto the gel, the gel was electrophoresed for an additional hour at 150 V and 4°C. The gel was then visualized using FluorChem M gel imager (Protein Simple, Santa Clara, CA) with a 607 nm excitation wavelength and a 710 nm emission filter.

[4] = system: 10 bp pvirB 51-60 FID (DNA, duplex) TAAAATAGTA/TACTATTTTA; assay: fluorescent intercalator displacement (ethidium bromide); settings: 0.1 M NaCl; 0.1 M Tris-HCl pH 8.0, room temperature; 7.5 μM ethidium; 1.5 μM DNA; highest tested 100 μM
[5] = system: 60 bp pvirB FID (DNA, duplex) AGAATATTATTCTTTTATCCAATAAAGATAAATTGCATCAATCCAGCTATTAAAATAGTA/TACTATTTTAATAGCTGGATTGATGCAATTTATCTTTATTGGATAAAAGAATAATATTCT; assay: as above; settings: 0.1 M NaCl; 0.1 M Tris-HCl pH 8.0, room temperature; 45 μM ethidium; 1.5 μM DNA; highest tested 100 μM
MalE-VirF [6] = molecular target: T3, MalE-VirF (Shigella flexneri, UniProt P0A2T1 1-262); assay: fluorescence anisotropy; settings: protein: recombinant; tags: N-terminal MalE (MBP) fusion, not cleaved; label: 5'-fluorescein on top strand; blunt
MalE-VirF [7] = molecular target: T3, MalE-VirF; assay: EMSA; 1 uM MalE-VirF, 0.25 uM DNA; settings: protein: recombinant, tags: N-terminal MalE (MBP) fusion, not cleaved, label: 5'-Cy5 on LUEGO strand (S5), blunt, three strands
MalE-VirF [8] = molecular target: T3, MalE-VirF; assay: fluorescence anisotropy; 20 uM MalE-VirF, 50 nM DNA (r = 39 alone, 36 with protein); settings: protein: recombinant; tags: N-terminal MalE (MBP) fusion, not cleaved; label: 5'-fluorescein on top strand; blunt

T1 sequence (P0A2T1 whole entry, looked up): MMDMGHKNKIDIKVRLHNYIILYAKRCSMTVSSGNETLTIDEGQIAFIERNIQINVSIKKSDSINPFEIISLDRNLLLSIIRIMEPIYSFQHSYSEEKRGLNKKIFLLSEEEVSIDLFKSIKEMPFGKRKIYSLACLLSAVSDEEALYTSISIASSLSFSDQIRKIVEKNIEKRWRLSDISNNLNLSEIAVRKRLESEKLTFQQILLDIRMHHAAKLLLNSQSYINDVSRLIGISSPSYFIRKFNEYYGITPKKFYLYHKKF
T3 sequence (P0A2T1 whole entry, the tested form may be a part): as the sequence (P0A2T1 whole entry, looked up) above
T2 sequence (P0A2T1 whole entry, looked up): as above

Molecule	inhibition at 100 µM [1]	also measured
c1ccc(-c2nc(N3CCOCC3)c3oc4ccccc4c3n2)cc1 [compound 9111063]	-5 ± 0.1%	
c1ccc(-c2nc(N3CCN(c4ccccc4)CC3)c3oc4ccccc4c3n2)cc1 [compound 568180]	2 ± 0.1%	
CN1CCN(c2nc(-c3ccccc3)nc3c2oc2ccccc23)CC1 [compound 078044]	42 ± 0.4%	
CCN(CC)CCOc1nc(-c2ccccc2)nc2c1oc1ccccc12 [compound 587109]	43 ± 1%	
CCN(CC)c1cccc(Oc2nc(-c3ccccc3)nc3c2oc2ccccc23)c1 [compound 9660235]	5 ± 0.2%	
c1ccc(-c2nc(Oc3cccnc3)c3oc4ccccc4c3n2)cc1 [compound 9660232]	17 ± 2%	
CCN(CC)CCOc1nc(C)nc2c1oc1ccccc12 [compound 050908]	18 ± 0.4%	
Clc1ccc2nc(COc3ccccc3)[nH]c2c1 [compound 153578]		Inhibition of the spread of an active S. flexneri infection [2]: approximately 75%; Effect on MalE-VirF binding to the pvirB DNA probe (EMSA) [3]: little to no effect on DNA binding
CCc1nc(OCCN(C)C)c2oc3ccccc3c2n1 [compound 587469]	16 ± 0.4%	
CCN(CC)CCNc1nc(-c2ccccc2)nc2c1oc1ccccc12 [compound 048373]	15 ± 0.4%	
CNCCOc1nc(-c2ccccc2)nc2c1oc1ccccc12		%fluorescence [4]: 95 ± 1%; %fluorescence [5]: 93 ± 3%
O=c1[nH]c(-c2ccc(C(F)(F)F)cc2)nc2c1oc1ccccc12 [compound 765345]	1 ± 0.1%	
CCN(CC)CCCOc1nc(-c2ccccc2)nc2c1oc1ccccc12 [compound 598089]	68%	
B1		Kd (MalE-VirF [6]): 2.8 ± 1 µM
B2		binding result (MalE-VirF [7]; LUEGO (S5) and top (S1) abut with a nick on bottom S2 (74 nt)): binds
B3		binding result (MalE-VirF [8]): no binding
B4		binding result (MalE-VirF [7]; LUEGO (S5) and top (S3) abut with a nick on bottom S4 (74 nt)): no binding
